Measured values from patent US5208224A, “Phosphorus containing compounds as antihypercholesterolemic and antiatherosclerotic agents” (Warner-Lambert Company, priority 1991, dated 1993).

What follows are compounds tested against T1, acyl-CoA:cholesterol acyltransferase (ACAT) (Oryctolagus cuniculus, UniProt G1SFD9) (assay: In vitro inhibition of ACAT: formation of radiolabeled cholesterol oleate from radiolabeled oleic acid in rabbit intestinal microsomes). Details: not given.
T1 construct: tissue preparation containing rabbit intestinal microsomes; from tissue; host or cells: rabbit intestinal microsomes
T1 sequence (G1SFD9 1-524): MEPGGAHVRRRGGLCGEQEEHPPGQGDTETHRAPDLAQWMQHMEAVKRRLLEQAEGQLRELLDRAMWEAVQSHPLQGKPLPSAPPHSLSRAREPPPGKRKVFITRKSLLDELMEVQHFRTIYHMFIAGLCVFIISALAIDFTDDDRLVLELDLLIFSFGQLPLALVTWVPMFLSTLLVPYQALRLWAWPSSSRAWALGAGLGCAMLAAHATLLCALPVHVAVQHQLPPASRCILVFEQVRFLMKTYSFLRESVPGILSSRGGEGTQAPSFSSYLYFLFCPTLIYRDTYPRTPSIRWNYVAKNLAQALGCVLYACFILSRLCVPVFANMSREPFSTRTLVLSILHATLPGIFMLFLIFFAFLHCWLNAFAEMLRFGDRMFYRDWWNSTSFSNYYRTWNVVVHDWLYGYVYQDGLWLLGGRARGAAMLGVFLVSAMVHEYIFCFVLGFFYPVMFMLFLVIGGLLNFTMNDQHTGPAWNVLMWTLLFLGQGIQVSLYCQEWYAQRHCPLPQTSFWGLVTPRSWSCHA
Format: biochemical
Text: The test assesses the ability of a test compound to inhibit the acylation of cholesterol by oleic acid by measuring the amount of radiolabeled cholesterol oleate formed from radiolabeled oleic acid in a tissue preparation containing rabbit intestinal microsomes.

| SMILES | IC50 [nM] |
| --- | --- |
| CCCCCCCCCCC1CN(Cc2ccccc2)P(=O)(OCC(=O)Nc2c(C(C)C)cccc2C(C)C)O1 (racemic) [Example 30, (±)-N-[2,6-Bis(1-methylethyl)phenyl]2-[[5-decyl-3-(phenylmethyl)-1,3,2-oxazaphosphonolidin-2-yl]-oxy]acetamide, P-oxide] | 33 |
| CCCCCCCCCOP(=O)(OCC)N(CC(=O)Nc1c(C(C)C)cccc1C(C)C)Cc1ccccc1 (racemic) [Example 32, (±)-[2-[[2,6 Bis(1-methylethyl)phenyl]amino]-2-oxoethyl](phenylmethyl)phosphoramidic Acid, Ethyl Nonyl Ester] | 14 |
| CCCCCCCCCOP(=O)(Oc1ccccc1)N(CC(=O)Nc1c(C(C)C)cccc1C(C)C)Cc1ccccc1 (racemic) [Example 34, (±)-[[[2,6-Bis(1-methylethyl)phenyl]amino]2-oxoethyl]-(phenylmethyl)phosphoramidic Acid, Nonyl Phenyl Ester] | 23 |
| CCCCCCCCCCCCC(C)OP(=O)(Oc1ccccc1)N(CC(=O)Nc1c(C(C)C)cccc1C(C)C)Cc1ccccc1 (racemic) [Example 35, (±)-[2-[[2,6-Bis(1-methylethyl)phenyl]amino]-2-oxoethyl](phenylmethyl)phosphoramidic Acid, 1-Methyltridecyl Phenyl Ester] | 160 |

Same assay, conditions: rabbit intestinal microsomes; read-out: IC50 (concentration of test compound required to inhibit cholesteryl oleate formation to 50% of control)

| SMILES | IC50 [nM] |
| --- | --- |
| CCCCCCC(C)OP(=O)(CC(=O)Nc1c(C(C)C)cccc1C(C)C)c1ccccc1 (racemic) [Example 11, (±)-2-[2,6-Bis(1-methylethyl)phenyl]amino]-2-oxoethyl]phenylphosphinic Acid, 1-Methylheptyl Ester] | 35 |
| CCCCCCCCCCCCOP(=O)(CC(=O)Nc1c(C(C)C)cccc1C(C)C)c1ccccc1 (racemic) [Example 12, (±)-[2-[[2,6-Bis(1-methylethyl)phenyl]amino]-2-oxoethyl]phenylphosphinicAcid, Dodecyl Ester] | 29 |
| CCCCCCCCCOP(=O)(c1ccccc1)N(CC(=O)Nc1c(C(C)C)cccc1C(C)C)Cc1ccccc1 (racemic) [Example 31, (±)-N-[2-[2,6-Bis(1-methylethyl)phenyl]amino]-2-oxoethyl]-P-phenyl-N-(phenylmethyl)phosphonamidic Acid, Nonyl Ester] | 23 |
| CC(C)c1cccc(C(C)C)c1NC(=O)CP(=O)(c1ccccc1)c1ccccc1 [Example 2, N-2,6-Bis(1-methylethyl)phenyl-2-(diphenylphosphinyl)acetamide] | 2300 |
| CC(C)c1cccc(C(C)C)c1NC(=O)CP(=O)(OCc1ccccc1)OCc1ccccc1 [Example 36, [2-[[2,6-Bis(1-methylethyl)phenyl]amino]-2-oxoethyl]phosphonic Acid, Bis (Phenylmethyl)ester] | 72 |
